The values that follow are results of earlier work, collected in patent US20080286363A1, “Pharmaceutical Compositions for the Treatment of Inflammatory and Obstructive Airways Diseases” (priority 2005, published 2008).

For this data set the following is noted: aerosol formulation, single administration of a metered dose, asthma.

`C[N+]1(C)CCC(OC(=O)C(O)(c2ccccc2)C2CCCC2)C1.[Br-]` (racemic) [Compound B1, 3-[(Cyclopentyl-hydroxyphenylacetyl)oxy]-1,1-dimethylpyrrolidinium bromide]: the bronchodilation duration result was “up to 12 hours”.
